Our source for the MIC, pest or weed control and responders values is patent US4965280A, “Antifungal carbinols” (E. I. Du Pont de Nemours and Company, priority 1989, dated 1990).

A word on the MIC: it is the smallest concentration in the dilution series that meets the test's criterion for growth inhibition.

The test system of assay [1] is Candida albicans ATCC 11651. In words: In vitro antifungal MIC, microtiter broth dilution. To be noted: Candida albicans, ATCC11651, 24 h, read-out: MIC values, C. albicans, 30°, 24 hours. Background: Broth dilution looks for growth in wells or tubes with falling amounts of substance.
A further assay relates to Puccinia recondita. Put plainly: Example G wheat leaf rust. Type of assay: in vivo. The settings on record: read-out: disease control rating, Ex. G.
The next assay relates to Pythium aphanadermatum. Put plainly: Example J cucumber damping off. The class given is in vivo. To be noted: Pythium, 336 h; 5 kg/ha; read-out: disease control rating, Ex. J. The procedure:
[…] Seeds and soil were then inoculated with a mixture of sand, cereal and mycelium of the fungus Pythium aphanadermatum, causal agent of cucumber damping off, and incubated in a growth chamber at 30° C. for 14 days. Disease ratings were then made.

Assay [2] concerns Aspergillus fumigatus ATCC 28214. Put plainly: In vitro antifungal MIC, microtiter broth dilution. To be noted: Aspergillus fumigatus, ATCC28214, 24 h, read-out: MIC values, A. fumigatus, 30°, 24 hours.
Procedure: In vitro activity (Table 5) is expressed in terms of the minimal inhibitory concentration (MIC) of the test compound which inhibits the growth of yeasts and fungi.
The target organisms, Candida albicans ATCC 11651 and Aspergillus fumigatus ATCC 28214 are standardized, [V. Bezjak, J. Clinical Micro., 21 509-512 (1984)], to a concentration of 10^7 organisms/ml and maintained at -70° until use. Test compounds are solubilized in dimethyl sulfoxide (DMSO) and diluted in Eagle's Minimum Essential Medium (EMEM) broth to achieve a final concentration of 200 μg/ml. Stock solutions of standard antifungal agents are stored at -70° and diluted in EMEM as required.
The in vitro assay utilizes a microtiter broth dilution technique [L. Polonelli and G. Morace, Mycopathologia, 86, 21-28 (1984)] and C. […] The appropriate wells are inoculated with the required organism (C. albicans at 1×10^4 organisms/ml and A. fumigatus at 5×10^5 organisms/ml) and the assay incubated at 30° for 24 hours.
The subject of assay [3] is Erysiphe graminis f. sp. tritici. In words: Example D wheat powdery mildew. The class given is in vivo. The settings on record: Blumeria graminis, 144 h, read-out: disease control rating, Ex. D. In a few lines: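 Compounds were dissolved in acetone (6% of final volume), then suspended at 100 or 20 ppm in purified water containing 250 ppm TREM 014 surfactant. Wheat seedlings were sprayed with this suspension to run-off.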

The next assay concerns Plasmorpara viticola. In words: Example I grape downy mildew. The class given is in vivo. To be noted: read-out: disease control rating, Ex. I. The procedure, abridged:
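Applied as a foliar spray to run-off on grape seedlings, the compounds were formulated at 100 or 20 ppm in water containing 250 ppm TREM 014, with acetone making up 6% of the volume.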

In another assay the test system is Venturia inaequalis. Put plainly: Example A apple scab. Type of assay: in vivo. To be noted: read-out: disease control rating, Ex. A. The procedure, abridged: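 Test compounds were dissolved in acetone (6% of final volume) and suspended at 100 or 20 ppm in purified water containing 250 ppm of the surfactant TREM 014 (polyhydric alcohol esters). Apple seedlings were sprayed with this suspension to the point of run-off.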

Assay [4] concerns Rhizoctonia solani. Put plainly: Example K cotton blight. Type of assay: in vivo. To be noted: 336 h, 5 kg/ha, read-out: disease control rating, Ex. K. How it is done:
[…] Seeds and soil were then inoculated with a mixture of sand, cereal and mycelium of the fungus Rhizoctonia solani, causal agent of cotton blight, and incubated in a growth chamber at 30° C. for 14 days. Disease ratings were then made.

Another assay has as its system Sclerotium rolfsii. Put plainly: Example M southern blight. The class given is in vivo. To be noted: Agroathelia rolfsii, 336 h; 5 kg/ha; read-out: disease control rating, Ex. M. The procedure: […] Seeds and soil were then inoculated with a mixture of sand, cereal and mycelium of the fungus Sclerotium rolfsii, causal agent of sourthern blight, and incubated in a growth chamber at 30° C. for 14 days. Disease ratings were then made.

For the next assay, the system named is Pyricularia oryzae. Put plainly: whole plant or invertebrate. The class given is in vivo. The settings on record: Pyricularia oryzae, 120 h; for pest or weed control at 100 ppm: read-out: disease control rating, Ex. E, 100 PPM.
The test system of another assay is Phytophthora infestans. In words: whole plant or invertebrate. Type of assay: in vivo. The settings on record: Phytophthora infestans, in Solanum lycopersicum, read-out: disease control rating, Ex. H, 100 PPM.
In assay [5] the test system is Candida albicans ATCC 11651. Put plainly: In vivo systemic Candida infection in mice, primary assay. Also noted: species or system Candida albicans; CF-1 female mice. The settings on record: Candida albicans, 150 mg/kg per day, read-out: % Survival. In a few lines: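 CF-1 female mice (20 g, 10 per group) were infected IV with 0.2 ml of 1×10^7/ml C. albicans ATCC 11651, then given test compound subcutaneously at 50 or 150 mg/kg/day at 1 and 6 h post-infection and once daily for three more days. Survival was followed for 21 days against infected untreated mice; ≥70% protection at 14 days was scored active.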

Another assay concerns Botrytis cinerea. In words: Example C bean grey mold. Type of assay: in vivo. To be noted: Botrytis cinerea, 24 h, read-out: disease control rating, Ex. C. The procedure, abridged: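 Test compounds were taken up in acetone (6% of final volume) and suspended at 100 or 20 ppm in purified water containing 250 ppm TREM 014 surfactant (polyhydric alcohol esters). Broad bean seedlings were sprayed with this suspension until run-off.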

For assay [6], the system named is Rhizoctonia solani. Put plainly: Example F rice sheath blight. To be noted: Rhizoctonia solani, 144 h, read-out: disease control rating, Ex. F. Type of assay: in vivo. In a few lines: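 Compounds, dissolved in acetone at 6% of final volume, were suspended at 100 or 20 ppm in purified water with 250 ppm polyhydric alcohol ester surfactant (TREM 014). Rice seedlings were sprayed with this suspension to run-off.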

Assay [7] concerns Cercosporidium personatum. Put plainly: Example B Peanut Late Leafspot. The settings on record: Nothopassalora personata, read-out: disease control rating, Ex. B. The class given is in vivo. In a few lines:
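Compounds were dissolved in acetone (6% of final volume) and suspended at 100 or 20 ppm in purified water containing 250 ppm TREM 014 surfactant (polyhydric alcohol esters). The suspension was sprayed to run-off on peanut seedlings.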

≈ marks a conversion by molar mass, not a printed value. Like-named read-outs stand apart in the source and are kept apart here.

Turning to `C=C(c1ccc(F)cc1)C(O)(CCCC)Cn1cncn1` (stereo not drawn) [Example 6], the MIC in assay [1] was 1.6 µg/mL (≈ 5.53 µM); in assay [2], 25 µg/mL (≈ 86.4 µM). For the same molecule, the pest or weed control at 100 ppm with Puccinia recondita was 96%; in assay [3], 98%; in the assay on Plasmorpara viticola it was 0%; with Venturia inaequalis, 0%; in the assay with Pyricularia oryzae, 0%; with Phytophthora infestans, 23%. Also, the pest or weed control at 100 ppm with Botrytis cinerea came to 84%; with Rhizoctonia solani [6], 0%; in assay [7] it was 82%. Further, the pest or weed control at 5000 g/ha in the assay with Pythium aphanadermatum, in the assay with Rhizoctonia solani [4] and in the assay with Sclerotium rolfsii was 0% each time. The responders at 150 mg/kg in [5] (ATCC11651, 168 h, day 7) was found to be 50%; in assay [5] (ATCC11651, 336 h, day 14), 10%; in assay [5] (ATCC11651, 504 h, day 21), 0%.

For `C=C(c1cccc(F)c1)C(O)(Cn1cncn1)c1ccc(Cl)cc1Cl` (stereo not drawn) [Example 16, 2-(2,4-Dichlorophenyl)-3-(3-fluorophenyl)-1-(1H-1,2,4-triazol-1-yl)-3-buten-2-ol], the minimum inhibitory concentration (MIC) in assay [1] is 0.03 µg/mL (≈ 0.0793 µM); in assay [2] it was 6.3 µg/mL (≈ 16.7 µM). Also, the pest or weed control at 20 ppm with Puccinia recondita (20 PPM) turned out to be 100%; in assay [3] (20 PPM) it was 67%; with Venturia inaequalis (20 PPM), 74%; in the assay on Pyricularia oryzae (read-out: disease control rating, Ex. E, 20 PPM), 0%; in the assay on Botrytis cinerea (20 PPM), 27%; in the assay with Rhizoctonia solani [6] (20 PPM) it was 0%. Besides, in assay [7] (20 PPM), the pest or weed control at 20 ppm was 99%. Moreover, the pest or weed control at 5000 g/ha in the assay on Pythium aphanadermatum, with Rhizoctonia solani [4] and in the assay on Sclerotium rolfsii was 0% in each case. Besides, the pest or weed control at 100 ppm in the assay with Plasmorpara viticola turned out to be 23%; with Pyricularia oryzae, 0%; in the assay on Phytophthora infestans, 0%; with Botrytis cinerea, 46%; with Rhizoctonia solani [6] it was 0%. For the same molecule, the responders at 150 mg/kg in assay [5] (ATCC11651, 168 h, day 7) came to 100%; in assay [5] (ATCC11651, 336 h, day 14), 100%; in assay [5] (ATCC11651, 504 h, day 21), 100%.

Take `C=C(c1ccc(Cl)cc1)C(O)(Cn1cncn1)c1ccc(F)cc1` (stereo not drawn) [Example 25]: the MIC in assay [1] turned out to be 1.6 µg/mL (≈ 4.65 µM); in [2], 25 µg/mL (≈ 72.7 µM). In addition, the pest or weed control at 100 ppm with Puccinia recondita was found to be 97%; in [3], 91%; in the assay with Plasmorpara viticola, 0%; in the assay on Venturia inaequalis, 100%; in the assay with Pyricularia oryzae, 31%; in the assay on Phytophthora infestans, 0%. Further, the pest or weed control at 100 ppm was found to be 96% in the assay on Botrytis cinerea, 48% with Rhizoctonia solani [6] and 100% in [7]. Further, the pest or weed control at 5000 g/ha was determined as 0% in the assay on Pythium aphanadermatum and 35% in the assay with Sclerotium rolfsii. The responders at 150 mg/kg in [5] (ATCC11651, 168 h, day 7) came to 100%; in assay [5] (ATCC11651, 336 h, day 14) it was 100%; in [5] (ATCC11651, 504 h, day 21), 50%.

Turning to `C=C(c1ccc(F)cc1F)C(O)(Cn1cncn1)c1ccc(F)cc1` (stereo not drawn) [Example 94, 2-(4-Fluorophenyl)-3-(2,4-difluorophenyl)-1-(1H-1,2,4-triazol-1-yl)-3-buten-2-ol], the values for the MIC in assay [1] and in assay [2] were 0.4 µg/mL (≈ 1.16 µM) and 50 µg/mL (≈ 145 µM), respectively. Further, the pest or weed control at 100 ppm stood at 100% in the assay on Puccinia recondita; 98% in assay [3]; 0% in the assay with Plasmorpara viticola; 86% with Venturia inaequalis; 78% with Pyricularia oryzae; 0% in the assay with Phytophthora infestans. In addition, the pest or weed control at 100 ppm with Botrytis cinerea is 96%; in the assay with Rhizoctonia solani [6], 36%; in assay [7] it was 61%. Also, the pest or weed control at 5000 g/ha in the assay with Pythium aphanadermatum and in the assay on Rhizoctonia solani [4] was 0% in each case. The responders at 150 mg/kg is 100% in assay [5] (ATCC11651, 168 h, day 7); 40% in [5] (ATCC11651, 336 h, day 14); 10% in assay [5] (ATCC11651, 504 h, day 21).

For the molecule `C=C(c1ccc(Cl)cc1Cl)C(O)(Cn1cncn1)c1ccc(F)cc1` (stereo not drawn) [Example 99], the values for the MIC in assay [1] and in [2] were 0.05 µg/mL (≈ 0.132 µM) and 6.3 µg/mL (≈ 16.7 µM), respectively. Besides, the pest or weed control at 100 ppm with Puccinia recondita is 100%; in [3], 83%; in the assay with Plasmorpara viticola, 83%; in the assay on Venturia inaequalis, 100%; in the assay on Pyricularia oryzae, 98%; in the assay with Phytophthora infestans, 0%. The pest or weed control at 100 ppm in the assay with Botrytis cinerea was 89%; with Rhizoctonia solani [6], 61%; in assay [7] it was 100%. Moreover, the pest or weed control at 5000 g/ha in the assay on Pythium aphanadermatum and in the assay with Rhizoctonia solani [4] was 0% in each case. The responders at 150 mg/kg stood at 100% in assay [5] (ATCC11651, 168 h, day 7); 100% in assay [5] (ATCC11651, 336 h, day 14); 40% in assay [5] (ATCC11651, 504 h, day 21).

On to `C=C(c1ccccc1)C(O)(Cn1cncn1)c1ccccc1` (stereo not drawn) [Example 608], for which the MIC came out at 0.4 µg/mL (≈ 1.37 µM) in [1] and 6.3 µg/mL (≈ 21.6 µM) in assay [2]. For the same molecule, the pest or weed control at 100 ppm in the assay with Puccinia recondita came to 100%; in assay [3] it was 98%; in the assay with Plasmorpara viticola it was 0%; in the assay with Venturia inaequalis it was 87%; with Pyricularia oryzae it was 4%; in the assay with Phytophthora infestans it was 0%. Besides, the values for the pest or weed control at 100 ppm (with Botrytis cinerea; in the assay on Rhizoctonia solani [6]; in [7]) were 98%, 81% and 100%, respectively. Further, the pest or weed control at 5000 g/ha in the assay with Pythium aphanadermatum and in the assay on Rhizoctonia solani [4] was 0% throughout. The responders at 150 mg/kg amounted to 100% in assay [5] (ATCC11651, 168 h, day 7); 70% in [5] (ATCC11651, 336 h, day 14); 20% in [5] (ATCC11651, 504 h, day 21).

Take `C=C(c1ccc(Cl)cc1)C(O)(Cn1cncn1)c1ccccc1Cl` (stereo not drawn) [Example 671]: the figures for the minimum inhibitory concentration (MIC) in [1] and in assay [2] were 0.03 µg/mL (≈ 0.0833 µM) and 0.2 µg/mL (≈ 0.555 µM), respectively. Moreover, the pest or weed control at 100 ppm in the assay on Puccinia recondita was 100%; in assay [3] it was 94%; in the assay on Plasmorpara viticola, 84%; in the assay on Venturia inaequalis it was 100%; in the assay on Pyricularia oryzae it was 84%; in the assay on Phytophthora infestans, 0%. Further, the figures for the pest or weed control at 100 ppm (in the assay on Botrytis cinerea; in the assay with Rhizoctonia solani [6]; in assay [7]) were 92%, 100% and 100%, respectively. Further, the pest or weed control at 5000 g/ha in the assay with Pythium aphanadermatum and with Sclerotium rolfsii was 0% in each case. Also, the responders at 150 mg/kg in assay [5] (ATCC11651, 168 h, day 7) worked out at 100%; in assay [5] (ATCC11651, 336 h, day 14), 100%; in [5] (ATCC11651, 504 h, day 21), 60%.
